Results as given in US20130202614A1, “AUTOTAXIN PATHWAY MODULATION AND USES THEREOF” (B.S.R.C. "ALEXANDER FLEMING", priority 2010, published 2013).

What was measured:
Type in all cases: cell-based, mouse
primary SFs [1] = assay: Synovial fibroblast proliferation assay ([3H]thymidine incorporation); settings: for LPA responses of wt SFs (LPA-induced proliferation): pre-treated with inhibitor prior to LPA stimulation
Description: Primary SFs were isolated from 6-8 week old mice as previously described. Briefly, mouse joint specimens were minced and digested with type IV collagenase. The released cells were grown in Dulbecco's modified Eagle's medium (DMEM) supplemented with fetal bovine serum (FBS) and penicillin-streptomycin. Isolated fibroblasts adhered on culture dishes were maintained under standard conditions (37° C. and 5% CO2) and used for the experiments between the third and fifth passages.
Cells were starved with serum-free medium before treatment due to the presence of lysophospholipids in the serum Starvation medium is supplemented with 0.2% fatty-acid-free BSA. After routine starvation, cells were stimulated with various concentrations of the tested compounds (LPA, LPC, S1P or TNF) as indicated in details below. Where indicated cells were pre-treated with the inhibitors of ERK MAPK, p38 MAPK, JNK and Rho kinase for 3 hours prior to LPA stimulation. At the moment of cell treatment, the culture medium was replaced with fresh serum-free medium containing various concentrations of the tested compounds.
Preconfluent cell cultures were starved overnight, incubated for 24 h with LPA and the rest tested compounds and finally exposed to 0.5 μCi/ml of [^3H]thymidine. Cells were then washed, harvested by trypsinization and blotted on a membrane. The radioactivity of incorporated [^3H]-thymidine was determined by liquid scintillation counting.

primary SFs [2] = assay: MMP production by SFs (RT-PCR); settings: MMP-9
Description: Total RNA was extracted from subconfluent cultured SFs with the TRIzol reagent (Invitrogen Ltd, Paisley, PA4 9RF, UK Carlsbad, Calif. 92008) according to the manufacturer's instructions. RNA yield and purity were determined spectrophotometrically at 260/280 nm. cDNA synthesis was performed using the MMLV reverse transcriptase (Promega, Madison, Wis., United States Madison, Wis. 53711 USA). In all cases the normalization was performed in relation to the B2m internal control.
SQ PCR was performed by 20-27 cycles of denaturation at 95° C. for 30 s, annealing at 56-60° C. (depending on the Tm of each individual set of primers) for 30 s, and extension at 72° C. for 1 min, in a final volume of 20 μl. The products were separated by electrophoresis on 1.5% agarose gel and stained with ethidium bromide. […] Quantitative real-time PCR was performed using the iCycler Iq Real-Time detection system and the IQ SYBR Green Supermix (Bio-Rad Laboratories, Hercules, Calif., United States), according to the manufacturer's instructions, for one cycle of 95° C. for 3 min, and 42 cycles of denaturation at 95° C. for 30 s and annealing at 56-58° C. for 45 s. […]

primary SFs [3] = assay: SF cell migration assay (Boyden chambers); settings: LPA stimulation
Description: Modified Boyden chambers with 8-μm pores (Corning/Costar) were used where the lower surface of the membrane was coated with 10 μg/ml human fibronectin for 2 hours at 37° C. Cells were harvested with trypsin/EDTA, washed with PBS, and resuspended to 1×10^6 cells per ml. The suspension was added to the upper chamber, and the cells were allowed to migrate at 37° C., 5% CO2, for 4 hours. Non-migratory cells were removed from the upper surface of the membrane while migratory cells in the lower compartment of the chambers were washed with PBS and stained with 0.2% crystal violet in 10% ethanol for 10 min. After extensive washing in H2O, the cells were lysed and absorbance was measured at 570 nm with a SPECTRAmax photometer.

BDM macrophages = assay: BMDM cytokine secretion (Luminex); settings: upon LPA stimulation
primary SFs [4] = assay: SF adhesion assay (fibronectin); settings: LPA stimulation
Description: This assay was performed on plates coated with human fibronectin. Briefly, cells were allowed to adhere to the substrate, and unbound cells were removed with sequential washes with PBS. Adhered cells were then stained with crystal violet, solubilized, and their absorbance was determined at 570 nm. The experiment was performed in triplicates.

BMD macrophages = assay: Macrophage proliferation upon LPA addition; settings: primary cultures
primary SFs [5] = assay: SF proinflammatory cytokine secretion (multiplex Luminex ELISA); settings: especially IL-6
primary SFs [6] = assay: SF actin cytoskeleton rearrangement (phalloidin F-actin staining); settings: phaloidin-F-actin staining
Description: Cells were cultured on glass coverslips, grown in the presence of serum to subconfluence, and starved for 24 h by replacing the medium with serum-free medium containing 0.1% bovine serum albumin. Then the cells were treated with LPA and other components in serum-free medium for 4 h, fixed with 4% PFA and stained for F-actin with TRITC-conjugated phalloidin according to the manufacturer's protocol.

CCCCCCCC/C=C\CCCCCCCC(=O)OC[C@@H](O)COP(=O)([O-])OCC[N+](C)(C)C [LPC, 1-oleoyl-LPC (18:1)]
proliferation of mRA SFs (primary SFs [1]; 3H-thymidine incorporation): did stimulate the proliferation
proliferation of wt SFs (primary SFs [1]; 3H-thymidine incorporation): no effects

1-oleoyl-LPA (18:1)
production of matrix metaloproteinases (MMPs) by SFs (primary SFs [2]): stimulated
SF migration (primary SFs [3]): increased
cytokine secretion from BDM macrophages (BDM macrophages): No differences
proliferation of wt SFs (primary SFs [1]; 3H-thymidine incorporation): stimulated the proliferation
synergy with TNF on SF proliferation (primary SFs [1]; different concentrations of LPA and/or TNF): synergizes with TNF
SF adhesion (primary SFs [4]): increased
proliferation of macrophages (BMD macrophages): no effects
proinflammatory cytokine secretion from SFs (primary SFs [5]): stimulated proinflammatory cytokine secretion
SF actin cytoskeleton (primary SFs [6]): rearrangements of their actin cytoskeleton

C[S+]([O-])c1ccc(-c2nc(-c3ccncc3)c(-c3ccc(F)cc3)[nH]2)cc1 (centres unmarked) [SB203580]
LPA responses of wt SFs (LPA-induced proliferation) (primary SFs [1]): inhibited

COc1cccc(-c2cc(=O)c3ccccc3o2)c1N [PD98059]
LPA responses of wt SFs (LPA-induced proliferation) (primary SFs [1]): inhibited

C[C@@H](N)[C@H]1CC[C@H](C(=O)Nc2ccncc2)CC1 [Hybridoma Y27632]
LPA responses of wt SFs (LPA-induced proliferation) (primary SFs [1]): inhibited
